Laboratory results: US6020176A, “Kaurene synthase” (The Institute of Physical and Chemical Research, priority 1995, dated 2000)

Tested on: ent-kaurene synthase B (KSB)
Assay: Properties of KSB with the phenyl-purified enzyme preparation (pH, Km, cations)
Format: biochemical, Cucurbita maxima L.
Settings: for effect of divalent cation on KSB activity: 0.1-50 mM as chlorides, instead of 5 mM Mg2+; for effect of divalent cation on KSB activity / optimal concentration of cation for KSB activity: FIG. 4; for optimal concentration of cation for KSB activity: cation as chloride instead of 5 mM Mg2+
Description: The mixture was incubated at 30° C. for 30 min, and the enzyme reaction was terminated by the addition of acetone (200 μL) and water (100 μL). The mixture was extracted with n-hexane (400 μL), and 300 μL alibuots of the extract were concentrated in vacuo and applied to a silica gel plate. After developing with n-hexane, the radioactivity of the silica gel of the ent-kaurene region (Rf 0.6-1.0) was determined. One unit of kaurene synthase activity was defined as the production of 1 pmol of ent-kaurene per minute.
The amount of [1-^3 H]CPP was 2.2 kBq and the incubation period was 15 min. The other conditions were the same as those for the enzyme assay. To determine the optimal pH, KPi buffer (50 mM) adjusted to a particular pH (pH 4.5 to 9.0) was used. […] The production of ent-kaurene was calculated and the Km value was determined from a Lineweaver-Burk plot.

Structure (SMILES) | effect of divalent cation on KSB activity | effect on KSB activity in combination with 5 mM Mg2+ (added together with 5 mM Mg2+) | optimal concentration of cation for KSB activity | also measured
[Ba+2].[Cl-].[Cl-] [Ba^2+] | showed no effects | inhibited KSB activity promoted by Mg^2+ |  | 
[Ca+2].[Cl-].[Cl-] [Ca^2+] | showed no effects | inhibited KSB activity promoted by Mg^2+ |  | 
[Cl-].[Cl-].[Co+2] [Co^2+] | promoted KSB activity |  | around 10 mM | 
[Cl][Cu][Cl] [Cu^2+] | showed no effects | inhibited KSB activity promoted by Mg^2+ |  | concentration completely inhibiting the conversion promoted by 5 mM Mg2+ (added together with 5 mM Mg2+): above 0.5 mM
O=C(O)CN(CCN(CC(=O)O)CC(=O)O)CC(=O)O [EDTA] |  |  |  | effect of EDTA on KSB activity (EDTA 1-100 mM): did not change KSB activity
[Cl][Fe][Cl] [Fe^2+] | weakly promoted KSB activity |  |  | 
[Cl-].[Cl-].[Mg+2] [Mg^2+] | promoted KSB activity |  | around 10 mM | 
[Cl][Mn][Cl] [Mn^2+] | promoted KSB activity |  | around 10 mM | 
[Cl][Ni][Cl] [Ni^2+] | weakly promoted KSB activity |  |  | 
C=C1CC[C@@H]2C(C)(C)CCC[C@@]2(C)[C@@H]1CC/C(C)=C/COP(=O)(O)OP(=O)(O)O [[15-^3 H]CPP, copalyl pyrophosphate] |  |  |  | Km (phenyl-purified enzyme preparation, CPP 7 to 480 nM, Lineweaver-Burk plot): 0.35 µM
